Four molecules from patent US9526766B2, “Potentiation of antibiotic treatment with a protein-lipid complex” (priority 2012, dated 2016) can be followed below.

Entries after “also recorded” stand apart in the source; their conditions may differ. Read-outs that look alike come from different tables or passages of the source.

Test [1] deals with Staphylococcus aureus biofilms. Put plainly: Static biofilm model, viable counts. It counts as cell-based. The conditions noted are these: for Biofilm bactericidal activity, reduction in viable bacteria: MRSA NRS 70 and MSSA 11090306 biofilms, 24 hours, ALAFAC 200 μg/mL (12 μM), methicillin 250 μg/mL (660 μM); for Biofilm bactericidal activity, reduction in viable bacteria / Biofilm viability: alone or combined; for Biofilm death / reduction in biofilm biomass: methicillin 1,000 μg/ml monotherapy, combination with 100 μg/ml ALAFAC; for Minimum antibiotic concentration for bactericidal (>3 log10) activity on biofilms: 12 hours, antibiotic alone; for Biofilm viability: NRS 1 and NRS 384 biofilms, ALAFAC 500 μg/ml (30 μM), gentamicin 50 μg/ml (105 μM). On the procedure: Static Biofilm Model. Staphylococci were grown in TSB to mid-logarithmic phase (OD600=0.5), washed, and resuspended in fresh pre-warmed medium to a density of 2×10^4 CFU in 500 μl volume, and suspensions were used to seed polystyrene 24-well plates. Bacteria were cultured at 37° C. for 12 hours, after which biofilms were washed with PBS to eliminate planktonic bacteria and were exposed to TSB with indicated concentrations of ALAFAC and/or antibiotics for 24 hours at 37° C. Biofilms were then washed in PBS, sonicated and detached by scraping the surface in the presence of 100 μL PBS followed by a rinse with 100 μL PBS. Collected cells were vortexed twice for 20 seconds at high speed and the dispersed biofilm cells were first observed by microscopy to ensure proper dispersion and then diluted in a 10-fold dilution series where 100 μl of each dilution was plated on blood agar plates to determine viable CFUs per ml after overnight growth at 37° C. Colony counts from plates carrying 20-200 colonies were used to determine the viable counts and are reported as the total number of colony-forming units per biofilm.

For the next test, the system named is Acinetobacter baumanni. As to the kind of experiment: MIC by broth microdilution, antibiotics with and without ALAFAC. It counts as cell-based. Conditions: agent alone. Here is the method: (§1) Methodology: Minimal inhibitory concentrations (MICs) were determined in 96-well microtiter plates using the microdilution method according to approved standards of the CLSI except that Todd-Hewitt medium supplemented with 0.5% yeast extract, which yields reproducible MIC results was used as the test medium for S. pneumoniae. For the remaining species Mueller-Hinton medium was used as indicated by the CLSI standard. Each well contained two-fold dilutions of antibiotic, was seeded with a final bacterial concentration of 10^5 CFU/mL, and was incubated for 18 h at 37° C. in a Synergy II microplate reader (Biotek, Winooski, Vt.) where the OD600 was recorded every 5 minutes to monitor bacterial growth. The MIC was defined as the lowest concentration of antimicrobial agent solution at which no increase in OD600 was detected.
(§2) In vitro susceptibility tests. Minimal inhibitory concentrations (MICs) were determined in 96-well microtiter plates using the microdilution method according to approved standards of the CLSI except that Todd-Hewitt medium supplemented with 0.5% yeast extract, which yields reproducible MIC results was used as the test medium for S. pneumoniae. MICs for A. baumanni, and M. catarrhalis were determined in MH media. Two-fold dilutions of a starting antibiotic concentration was added in triplicate into microtiter plate wells (in 96-well plates), were seeded with a final bacterial concentration of ˜10^5 colony forming units (CFU)/mL, and was incubated for 18 h in ambient air at 37° C. in a Synergy II microplate reader (Biotek, Winooski, Vt.) where the OD600 was recorded every 5 minutes to monitor bacterial growth. The MIC was defined as the lowest concentration of antimicrobial agent solution at which no increase in OD600 was detected.
On the technique in general: Broth dilution looks for growth in wells or tubes with falling amounts of substance.

For the next test, the system named is Moraxella catarrhalis. Described as above. It counts as cell-based. Conditions: agent alone. On the procedure:
as §1, §2

Test [2] concerns S. pneumoniae nasopharyngeal colonization. Put plainly: Murine nasopharyngeal colonization model, intranasal treatment. In kind it is in vivo, Streptococcus pneumoniae. Conditions: for Minimum antibiotic concentration for bactericidal (>3 log10) activity on murine nasopharyngeal colonization: mice, within 12 hours, antibiotic alone; for Colonization level / bacterial burden: mice colonized with SP670 for 48 hours, penicillin up to 100 μg (5,000 μg/ml) intranasally, 12 hours. Here is the method:
Methodology: Six-week-old female BALB/cByJ mice from Jackson Laboratories (Bar Harbor, Me., U.S.A.) were maintained in filter-top cages on standard laboratory chow and water ad libitum until use. Mice were colonized as described previously. In short, 20 μl of a bacterial suspension containing 5×10^6 CFUs of EF3030 pneumococci, 1×10^8 CFUs of SP670 pneumococci, or 5×10^7 NRS70 methicillin-resistant S. aureus in PBS were pipetted into the nares of non-anesthetized mice. […] Colonization burden was then assessed after euthanizing the animals by enumerating viable bacteria from harvested nasopharyngeal tissue after the nasal wash. Nasopharyngeal tissue was dissected out as described by removing the upper skull bone, and harvesting the tissue present in the nasal conchae with forceps. Bacterial load was measured by determining viable plate counts from the homogenized tissue.
Mice were colonized as described. In short, 20 μl of a bacterial suspension containing 5×10^6 CFUs of EF3030 pneumococci in PBS or 1×10^8 CFUs of SP670 pneumococci in PBS were pipetted into the nares of non-anesthetized mice. […] Colonization burden was then assessed after euthanizing the animals by enumerating viable bacteria both in a nasopharyngeal lavage obtained by injecting 100 μL PBS in the trachea of mice and collecting it as it flowed out the nares, and from harvested nasopharyngeal tissue after the nasal wash. Nasopharyngeal tissue was dissected out as described by removing the upper skull bone, and harvesting the tissue present in the nasal conchae with forceps. Bacterial load was measured by determining viable plate counts from the nasal lavage or from homogenized tissue.

The subject of the next test is S. pneumoniae D39. As to the kind of experiment: Autolysis by optical density at 600 nm. In kind it is cell-based, Streptococcus pneumoniae. The text has this:
Most agents that kill pneumococci, including […] and cell wall-active anti-bacterials activate the major autolysin LytA to induce lysis of the bacteria, which can easily be detected by eye as a clearing of the bacterial suspension upon treatment and measured by a decrease in OD600 nm over time. In comparison, antibiotics acting on bacterial DNA, RNA, or protein synthesis show reduced, though still significant, levels of cell lysis. However, during our combination treatments with […] and gentamicin above we observed no detectable lysis. […] The lack of lysis from combination treatment may be beneficial for the host in reducing the host inflammation associated with bacterial components after lysis.

Where [3] appears, read: ALAFAC 50 μg, alone or combined.
Setting [4] is: sublethal ALAFAC (50 μg/ml), low gentamicin, alone or combined.

In the case of `COc1cccc(OC)c1C(=O)N[C@@H]1C(=O)N2[C@@H]1SC(C)(C)[C@@H]2C(=O)O` [Methicillin, methicillin], in test [1], the “Biofilm bactericidal activity, reduction in viable bacteria” value is listed as “failed to induce bactericidal activity”. The entries for the “Biofilm death / reduction in biofilm biomass” value in test [1] (MRSA NRS70 biofilm) and in test [1] (MSSA 11090306 biofilm) were 0.16 log10 and 1 log10, respectively. The “Minimum antibiotic concentration for bactericidal (>3 log10) activity on biofilms” value in test [1] (S. aureus 11090306 biofilm) and in test [1] (S. aureus NRS70 biofilm) was >1000 μg/ml in each case.

One may read the MIC as the least concentration at which growth counts as inhibited. With `CC1(C)S[C@@H]2[C@H](NC(=O)Cc3ccccc3)C(=O)N2[C@H]1C(=O)O` [Penicillin, penicillin G], the MIC with Acinetobacter baumanni (A. baumanni AB307) was >100 µg/mL; in the test with Acinetobacter baumanni (A. baumanni AB979) it was >100 µg/mL; with Acinetobacter baumanni (A. baumanni AB979, listed as penicillin), “exceeded 100 μg/ml”; in the test with Acinetobacter baumanni (Acinetobacter, A. baumanni AB307, read-out: MIC) it was > 100 µg/mL; in the test on Moraxella catarrhalis (M. catarrhalis 7169 (MC7169)), >50 µg/mL; in the test with Moraxella catarrhalis (M. catarrhalis BC8 (MCBC8)) it was >50 µg/mL. In addition, the MIC entry is “exceeded 50 μg/ml” in the test on Moraxella catarrhalis (M. catarrhalis BC8 (MCBC8), listed as penicillin) and > 50 µg/mL in the test on Moraxella catarrhalis (Moraxella catarrhalis, M. catarrhalis 7169 (MC7169), read-out: MIC). In test [2] (SP670), the “Minimum antibiotic concentration for bactericidal (>3 log10) activity on murine nasopharyngeal colonization” value is recorded as >100 μg/dose. Moreover, the “Colonization level / bacterial burden” value is given as “no effect” in test [2] (setting [3]); “no effect” in test [2] (ALAFAC 50 μg, alone or combined, listed as Penicillin G); “no effect; also recorded: completely resistant” in test [2] (ALAFAC 50 μg, alone or combined, listed as penicillin); “no change in colonization” in test [2] (ALAFAC 50 μg, alone or combined, listed as penicillin G).

Consider gentamicin, for which the MIC in the test on Acinetobacter baumanni (A. baumanni AB307) stood at 36 µg/mL; in the test with Acinetobacter baumanni (A. baumanni AB979), 2.5 µg/mL; in the test with Moraxella catarrhalis (M. catarrhalis 7169 (MC7169)) it was 25 µg/mL; in the test on Moraxella catarrhalis (M. catarrhalis BC8 (MCBC8)) it was 25 µg/mL. Also, in test [1], the Biofilm viability entry is reported as “Neither ALAFAC (500 μg/ml; 30 μM) nor gentamicin (50 μg/ml; 105 μM) had any effect”. Also, the “Dose concentration required to eradicate nasal lavage-associated bacteria” value in test [2] (EF3030, gentamicin alone) was 1,500 μg/ml. For the same molecule, the “Minimum antibiotic concentration for bactericidal (>3 log10) activity on murine nasopharyngeal colonization” value in test [2] (EF3030) is recorded as 100 μg/dose. The “Gentamicin dose at which reduction of bacterial burden starts” value in test [2] (EF3030, nasal lavage, gentamicin alone) is 3 μg/mouse; in test [2] (EF3030, nasopharyngeal tissues, gentamicin alone), 10 μg/mouse. For the same molecule, the “Autolysis (OD600)” value with S. pneumoniae D39 (setting [4]) is listed as “failed to lyse”.

B1: ALAFAC: non-covalent complex of alpha-lactalbumin and fatty acid (oleic acid); labeled HAMLET or HL in drawings and tables (protein, UniProt P00709 20-142, looked up)
Alpha-lactalbumin: KQFTKCELSQLLKDIDGYGGIALPELICTMFHTSGYDTQAIVENNESTEYGLFQISNKLWCKSSQVPQSRNICDISCDKFLDDDITDDIMCAKKILDIKGIDYWLAHKALCTEKLEQWLCEKL
modifications: complexed with oleic acid
Take B1: in test [1], the “Biofilm bactericidal activity, reduction in viable bacteria” value is “failed to induce bactericidal activity”. The “Biofilm death / reduction in biofilm biomass” value in test [1] (MRSA NRS70 biofilm) and in test [1] (MSSA 11090306 biofilm) was “no death” throughout. For the same molecule, the Biofilm viability result in test [1] is given as “Neither ALAFAC (500 μg/ml; 30 μM) nor gentamicin (50 μg/ml; 105 μM) had any effect”. Also, the “Bacterial burden, nasopharyngeal tissue and nasal lavage” value in test [2] (mice colonized with EF3030 for 48 hours, single intranasal dose, ALAFAC 50 μg, gentamicin, alone or combined, 6 hours) was “no decrease in bacterial burden”. Besides, in test [2] (setting [3]), the “Colonization level / bacterial burden” value was “no effect; also recorded: no decrease in the pneumococcal burden”. The “Autolysis (OD600)” value is “rapid lysis” in the test on S. pneumoniae D39 (ALAFAC alone at a lethal concentration (250 μg/ml)) and “small decrease in optical density” in the test on S. pneumoniae D39 (setting [4]).
